Test results taken from US6924302B2, “Substituted triazole diamine derivatives as kinase inhibitors” (Ortho McNeil Pharmaceutical, Inc., priority 2000, dated 2005).
Where two headings read alike, the source gives them in different places.

How the values were obtained:
[1] = target: T1, Casein Kinase 1 (CK1 delta isoform) (Rattus norvegicus, UniProt Q06486); assay: Kinase Selectivity Assay Casein Kinase 1; type: biochemical; conditions: Tables 2a-2k, read-out: Caseine Kinase 1 IC50
T1 construct: a truncation at amino acid 318 of the C-terminal portion of the rat CK1 delta isoform; purchased New England Biolabs 6030; host or cells: E. coli
T1 sequence (Q06486 1-317): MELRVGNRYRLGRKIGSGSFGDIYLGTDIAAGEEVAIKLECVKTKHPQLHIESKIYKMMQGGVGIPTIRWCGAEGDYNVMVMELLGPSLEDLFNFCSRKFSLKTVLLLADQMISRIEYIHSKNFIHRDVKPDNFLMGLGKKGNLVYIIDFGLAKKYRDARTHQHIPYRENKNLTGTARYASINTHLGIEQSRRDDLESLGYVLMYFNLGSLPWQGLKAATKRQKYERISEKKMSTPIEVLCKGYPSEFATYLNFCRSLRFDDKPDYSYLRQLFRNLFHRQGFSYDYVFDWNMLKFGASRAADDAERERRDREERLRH
In short: (§1)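 Biotinylated peptide phosphorylation measured as ^33P-γ-ATP incorporation on streptavidin plates after 1 h at 30° C, 1% DMSO final, enzyme in 50 mM Tris-HCl pH 8.0, 0.1% BSA. Compounds in duplicate at 8 concentrations, 100 uM to 10 pM. IC50 from percent inhibition versus log concentration.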

[2] = target: T2, CDK1:Cyclin-B (Homo sapiens, UniProt P06493); assay: CDK1 Screening Assay; type: biochemical; conditions: read-out: CDK1 IC50
T2 construct: purchased New England Biolabs 6020; host or cells: insect cells
T2 sequence (P06493 whole entry): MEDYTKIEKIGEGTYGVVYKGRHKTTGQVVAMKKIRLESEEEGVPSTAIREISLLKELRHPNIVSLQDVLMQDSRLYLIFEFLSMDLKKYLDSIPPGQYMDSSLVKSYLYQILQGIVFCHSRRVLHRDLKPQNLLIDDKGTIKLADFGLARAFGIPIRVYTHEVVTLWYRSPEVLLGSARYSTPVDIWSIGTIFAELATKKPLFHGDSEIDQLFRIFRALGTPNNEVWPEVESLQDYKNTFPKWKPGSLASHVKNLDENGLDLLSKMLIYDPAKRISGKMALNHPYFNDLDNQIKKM
T2 sequence (P14635 whole entry partner): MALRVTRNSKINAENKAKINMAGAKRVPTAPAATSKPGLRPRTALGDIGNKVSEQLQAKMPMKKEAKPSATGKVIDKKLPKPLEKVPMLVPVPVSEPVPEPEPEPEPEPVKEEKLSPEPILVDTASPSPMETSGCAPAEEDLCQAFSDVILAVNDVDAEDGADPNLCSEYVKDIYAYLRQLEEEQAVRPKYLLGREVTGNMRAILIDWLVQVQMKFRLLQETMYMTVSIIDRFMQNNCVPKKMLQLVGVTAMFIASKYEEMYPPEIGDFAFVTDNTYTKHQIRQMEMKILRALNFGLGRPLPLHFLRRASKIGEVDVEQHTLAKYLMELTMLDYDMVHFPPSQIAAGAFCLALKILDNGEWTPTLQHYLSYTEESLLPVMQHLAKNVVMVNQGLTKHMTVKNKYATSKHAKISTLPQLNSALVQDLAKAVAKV
In short: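 Human CDK1:cyclin-B (30 ng/well) with biotinylated histone-H1 peptide and ^33P-γ-ATP, 1 h at 30° C, 1% DMSO, on streptavidin FlashPlate; incorporation read by scintillation.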

[3] = target: T3, PDGF-R (platelet derived growth factor receptor) beta subunit kinase domain (Homo sapiens, UniProt P09619); assay: Kinase Selectivity Assay PDGF-R; type: biochemical; conditions: Kinase Selectivity, Tables 2a-2k; read-out: PDGF-R kinase IC50
T3 construct: nucleotides 1874-3507 of the human PDGF-R beta subunit kinase domain; polyhistidine (N)
T3 sequence (P09619 564-1106): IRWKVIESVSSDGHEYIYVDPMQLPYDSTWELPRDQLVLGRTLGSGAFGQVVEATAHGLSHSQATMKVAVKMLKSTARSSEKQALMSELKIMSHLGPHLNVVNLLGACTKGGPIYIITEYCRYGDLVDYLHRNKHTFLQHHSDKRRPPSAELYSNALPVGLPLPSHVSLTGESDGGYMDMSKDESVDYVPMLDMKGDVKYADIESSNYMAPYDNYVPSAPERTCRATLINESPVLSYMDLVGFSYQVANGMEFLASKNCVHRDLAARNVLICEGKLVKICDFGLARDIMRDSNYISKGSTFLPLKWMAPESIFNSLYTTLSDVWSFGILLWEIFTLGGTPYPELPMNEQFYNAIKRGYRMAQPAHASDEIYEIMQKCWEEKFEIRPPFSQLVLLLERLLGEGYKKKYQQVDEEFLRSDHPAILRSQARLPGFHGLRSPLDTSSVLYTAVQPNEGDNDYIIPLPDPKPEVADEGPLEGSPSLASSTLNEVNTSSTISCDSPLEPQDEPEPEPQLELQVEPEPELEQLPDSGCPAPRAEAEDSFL
In short: as §1

[4] = target: T4, Casein Kinase 2 (alpha and beta subunits) (Homo sapiens, UniProt P68400); assay: Kinase Selectivity Assay Casein Kinase 2; type: biochemical; conditions: Kinase Selectivity, Tables 2a-2k; read-out: Caseine Kinase 2 IC50
T4 construct: purchased New England Biolabs 6010; host or cells: E. coli
T4 sequence (P68400 whole entry): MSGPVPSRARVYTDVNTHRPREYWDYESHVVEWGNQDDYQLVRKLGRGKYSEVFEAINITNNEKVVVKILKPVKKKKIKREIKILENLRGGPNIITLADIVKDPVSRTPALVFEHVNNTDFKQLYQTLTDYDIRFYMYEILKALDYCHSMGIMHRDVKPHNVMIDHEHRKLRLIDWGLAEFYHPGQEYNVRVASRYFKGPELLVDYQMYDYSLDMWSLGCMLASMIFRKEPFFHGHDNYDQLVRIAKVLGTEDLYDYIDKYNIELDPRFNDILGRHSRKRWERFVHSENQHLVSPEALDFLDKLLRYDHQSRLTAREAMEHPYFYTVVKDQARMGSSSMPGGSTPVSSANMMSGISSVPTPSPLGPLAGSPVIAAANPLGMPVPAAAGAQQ
T4 sequence (P67870 whole entry partner): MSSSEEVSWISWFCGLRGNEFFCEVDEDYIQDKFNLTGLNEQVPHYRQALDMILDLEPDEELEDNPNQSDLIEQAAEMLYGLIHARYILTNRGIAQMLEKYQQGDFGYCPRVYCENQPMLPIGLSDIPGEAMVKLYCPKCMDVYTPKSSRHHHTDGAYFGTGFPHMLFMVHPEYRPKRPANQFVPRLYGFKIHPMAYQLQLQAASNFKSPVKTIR
In short: as §1

[5] = target: T5, Glycogen Synthase Kinase-3 (beta isoform) (Oryctolagus cuniculus, UniProt G1T8E2); assay: Kinase Selectivity Assay Glycogen Synthase Kinase-3; type: biochemical, rabbit; conditions: Kinase Selectivity, Tables 2a-2k; read-out: GSK-3 IC50
T5 construct: purchased New England Biolabs 6040; host or cells: E. coli
T5 sequence (G1T8E2 1-432): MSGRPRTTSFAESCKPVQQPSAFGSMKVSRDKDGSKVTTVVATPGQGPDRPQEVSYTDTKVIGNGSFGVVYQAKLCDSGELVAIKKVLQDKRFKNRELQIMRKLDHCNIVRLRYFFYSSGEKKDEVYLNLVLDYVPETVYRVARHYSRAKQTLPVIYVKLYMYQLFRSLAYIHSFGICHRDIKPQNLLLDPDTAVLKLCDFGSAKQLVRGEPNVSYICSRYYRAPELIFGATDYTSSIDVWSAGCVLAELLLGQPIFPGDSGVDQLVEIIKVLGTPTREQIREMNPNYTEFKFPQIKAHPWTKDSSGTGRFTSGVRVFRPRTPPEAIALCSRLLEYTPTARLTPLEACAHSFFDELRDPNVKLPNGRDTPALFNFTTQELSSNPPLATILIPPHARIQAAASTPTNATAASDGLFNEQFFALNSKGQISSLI
In short: as §1

[6] = Kinase Selectivity, Tables 2a-2k

| SMILES | IC50 [1] [nM] | IC50 [2, 6] [nM] | IC50 ([2]; Table 1) [nM] | IC50 [3] [nM] | IC50 [4] [nM] | IC50 [5] [nM] |
| --- | --- | --- | --- | --- | --- | --- |
| Cc1ccsc1C(=O)n1nc(Nc2ccc(N3CCNC3=O)cc2)nc1N [Cpd 113, 1-[4-[[5-amino-1-[(3-methyl-2-thienyl)carbonyl]-1H-1,2,4-triazol-3-yl]amino]phenyl]-2-imidazolidinone] | 318 | 254 | 254 | 370 | > 100000 | 71 |
| Cc1ccc(F)c(C(=O)n2nc(N)nc2Nc2ccc(S(N)(=O)=O)cc2)c1F [Cpd 123, 4-[[3-amino-1-(2,6-difluoro-3-methylbenzoyl)-1H-1,2,4-triazol-5-yl]amino]-benzenesulfonamide] | > 100000 | 2050 | 2050 | > 100000 | > 100000 | 3010 |
| Cc1ccsc1C(=O)n1nc(Nc2ccc(S(=O)(=O)NCCN(C)C)cc2)nc1N [Cpd 104, 4-[[5-amino-1-[(3-methyl-2-thienyl)carbonyl]-1H-1,2,4-triazol-3-yl]amino]-N-[2-(dimethylamino)ethyl]-benzenesulfonamide] | 624 | 1.6 | 15.6 | 192 | > 100000 | 20 |
| CNS(=O)(=O)c1ccc(Nc2nc(N)n(C(=O)c3sccc3C)n2)cc1 [Cpd 82, 4-[[5-amino-1-[(3-methyl-2-thienyl)carbonyl]-1H-1,2,4-triazol-3-yl]amino]-N-methyl-benzenesulfonamide] | 354 | 9 | 9 | 42 | > 100000 | 25 |
| CC(C)(C)c1ccc(C(=O)n2nc(Nc3ccc(S(N)(=O)=O)cc3)nc2N)s1 [Cpd 51, 4-[[5-amino-1-[[5-(1,1-dimethylethyl)-2-thienyl]carbonyl]-1H-1,2,4-triazol-3-yl]amino]-benzenesulfonamide] | 223 | 7 | 7 | 199 | 1780 | 20 |
| Cc1ccsc1C(=O)n1nc(Nc2ccc(N3CCCS3(=O)=O)cc2)nc1N [Cpd 116, N^3-[4-(1,1-dioxido-2-isothiazolidinyl)phenyl]-1-[(3-methyl-2-thienyl)carbonyl]-1H-1,2,4-triazole-3,5-diamine] | > 1000 | 21 | 20.8 | 302 | > 100000 | 62 |
